Measured values from EP0351921A2, “Modified beta adrenergic receptor” (MERCK & CO. INC., priority 1988, dated 1990).

How the values were obtained:
[1] = target: wild-type βAR ([Asp113]βAR) (Mesocricetus auratus, UniProt P04274); experiment: Adenylyl cyclase stimulation in membranes of cell lines expressing the receptor; settings: for %NaF: (Asp^113)βAR, percentage of maximal stimulation by 10 mM NaF, Table 3; for maximal adenylyl cyclase stimulation (% of NaF): [Asp113]βAR, maximally effective concentration of the compound, relative to 10 mM NaF, Table 1
Chain of wild-type βAR ([Asp113]βAR) (P04274 whole entry): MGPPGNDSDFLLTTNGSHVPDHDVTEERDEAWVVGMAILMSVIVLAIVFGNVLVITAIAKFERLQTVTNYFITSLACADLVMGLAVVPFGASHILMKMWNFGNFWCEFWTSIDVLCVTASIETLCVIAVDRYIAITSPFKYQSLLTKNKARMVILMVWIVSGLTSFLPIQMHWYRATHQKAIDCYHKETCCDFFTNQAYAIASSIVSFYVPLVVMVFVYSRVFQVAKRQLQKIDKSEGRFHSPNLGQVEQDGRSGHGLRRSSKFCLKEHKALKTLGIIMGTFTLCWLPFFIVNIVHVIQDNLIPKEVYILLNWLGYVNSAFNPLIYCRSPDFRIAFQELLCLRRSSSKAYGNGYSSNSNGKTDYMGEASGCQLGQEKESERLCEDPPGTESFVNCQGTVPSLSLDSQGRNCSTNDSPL

[2] = target: [Glu¹¹³]βAR (Mesocricetus auratus, UniProt P04274, D113E); experiment: as above; settings: for %NaF: (Glu^113)βAR, percentage of maximal stimulation by 10 mM NaF, Table 3
Chain of [Glu¹¹³]βAR (P04274 whole entry D113E): as the sequence (P04274 whole entry) above, with D113E counted along it

[3] = target: T1, [Asn113]βAR (Mesocricetus auratus, UniProt P04274, D113N); experiment: as above; format: biochemical, hamster; settings: for maximal adenylyl cyclase stimulation (% of NaF): [Asn113]βAR, maximally effective concentration of the compound, relative to 10 mM NaF, Table 1
T1 construct: pSVBAC contains the full length hamster β₂AR cDNA cloned into the EcoRI site of pSVL; expressed in transfected cells; host or cells: mouse L cells (clonal lines; membranes)
T1 sequence (P04274 whole entry D113N): as the sequence (P04274 whole entry) above, with D113N counted along it

[4] = target: [Arg¹¹³]βAR (Mesocricetus auratus, UniProt P04274, D113R); settings: ligand concentrations as high as 1 mM
Chain of [Arg¹¹³]βAR (P04274 whole entry D113R): as the sequence (P04274 whole entry) above, with D113R counted along it

[5] = target: [Cys¹¹³]βAR (Mesocricetus auratus, UniProt P04274, D113C); settings: ligand concentrations as high as 1 mM
Chain of [Cys¹¹³]βAR (P04274 whole entry D113C): as the sequence (P04274 whole entry) above, with D113C counted along it

[6] = target: [His¹¹³]βAR (Mesocricetus auratus, UniProt P04274, D113H); settings: ligand concentrations as high as 1 mM
Chain of [His¹¹³]βAR (P04274 whole entry D113H): as the sequence (P04274 whole entry) above, with D113H counted along it

[7] = target: [LYS¹¹³]βAR (Mesocricetus auratus, UniProt P04274, D113K); settings: ligand concentrations as high as 1 mM
Chain of [LYS¹¹³]βAR (P04274 whole entry D113K): as the sequence (P04274 whole entry) above, with D113K counted along it

[8] = maximum concentration 10⁻⁵ M (+)
[9] = maximum concentration 10⁻⁴ M (*)

%NaF ([1]; maximum concentration 10⁻³ M) [%]	%NaF ([2]; maximum concentration 10⁻³ M) [%]	%NaF [1, 8]	%NaF [2, 9]	SMILES	other results
0	0	–	–	CC(C)NCC(O)COc1ccccc1 (stereo not drawn) [Compound 4, 3-phenoxy-1-isopropylamino-2-propanol]	–
–	–	0^+ %	0^* %	CC(C)NCC(O)COc1ccc(CC(N)=O)cc1 (stereo not drawn) [Compound 6, atenolol]	–
–	–	0^+ %	2^* %	COCCc1ccc(OCC(O)CNC(C)C)cc1 (stereo not drawn) [Compound 7, metoprolol]	–
–	–	0^+ %	0^* %	CC(C)NCC(O)COc1ccc(COCCOC(C)C)cc1 (stereo not drawn) [Compound 8, bisopropol]	–
0	0	–	–	CC(C)NCC(O)COc1ccccc1N1CCOCC1 (stereo not drawn) [Compound 9, 3-o-morpholinophenoxy-1-isopropylamino-2-propanol]	–

The remaining lines, values behind:

SMILES	%NaF ([1]; maximum concentration 10⁻³ M) [%]	%NaF ([2]; maximum concentration 10⁻³ M) [%]	%NaF [1, 8]	%NaF [2, 9]	other results
CC(C)NCC(O)COc1cccc2[nH]ccc12 (stereo not drawn) [Compound 2, pindolol]	0	35	–	–	–
Cc1ccc(OCC(O)CNC(C)C)c2c1CCC2 (stereo not drawn) [Compound 3, 3-(7-methylindan-4-yloxy) -1-isopropylamino-2-propanol]	0	6	–	–	–
CC(C)NCC(O)COc1ccc(-c2ncc[nH]2)cc1 (stereo not drawn) [Compound 5, 3-(4-(1-imidazol-2-yl)phenoxy)-1-isopropylamino-2-propanol]	0	0	–	–	–
N=C(N)NCC(O)c1ccc(O)c(O)c1 [L-612,158, 1-[2-(3,4-dihydroxyphenyl)-2-hydroxyethyl]guanidine]	–	–	–	–	maximal adenylyl cyclase stimulation (% of NaF) [3]: 50%; maximal adenylyl cyclase stimulation (% of NaF) [1]: 11%; decrease in affinity of the interaction with the wild type βAR ([1]; versus isoproterenol): 1000 fold
CC(C)NCC(O)c1ccc(O)c(O)c1 (stereo not drawn) [isoproterenol]	–	–	–	–	maximal adenylyl cyclase stimulation (% of NaF) [3]: 100%; decrease in affinity for the receptor ([3]; substitution of Asn for Asp¹¹³, versus wild-type receptor): 5000 fold; stimulation of adenylyl cyclase [4]: no stimulation; stimulation of adenylyl cyclase [5]: no stimulation; stimulation of adenylyl cyclase [6]: no stimulation; stimulation of adenylyl cyclase [7]: no stimulation; maximal adenylyl cyclase stimulation (% of NaF) [1]: 100%; decrease in affinity for the receptor ([2]; substitution of Glu for Asp¹¹³, versus wild-type receptor): 300 fold
